# Read-outs that look alike come from different tables or passages of the source.
# Tests used:
# [1] = target: T1, type B monoamine oxidase (MAO.B) (Rattus norvegicus, UniProt P19643); test: ex vivo brain MAO.B inhibition after single oral dose in rats, PEA substrate; conditions: for inhibition at 5 mg/kg / inhibition at 10 mg/kg / inhibition at 20 mg/kg: rat, po; for inhibition at 5 mg/kg: 5 mg/kg p.o.; for specificity and reversibility / level of activity: in words; for specificity and reversibility: compared with racemic; for level of activity: compared with racemic or dose; for inhibition at 10 mg/kg: 10 mg/kg p.o.; for inhibition at 20 mg/kg: 20 mg/kg p.o.
# T1 construct: the brains being removed, weighed, homogeneized; from tissue; host or cells: brain of orally dosed rats, homogenized
# T1 sequence (P19643 1-520): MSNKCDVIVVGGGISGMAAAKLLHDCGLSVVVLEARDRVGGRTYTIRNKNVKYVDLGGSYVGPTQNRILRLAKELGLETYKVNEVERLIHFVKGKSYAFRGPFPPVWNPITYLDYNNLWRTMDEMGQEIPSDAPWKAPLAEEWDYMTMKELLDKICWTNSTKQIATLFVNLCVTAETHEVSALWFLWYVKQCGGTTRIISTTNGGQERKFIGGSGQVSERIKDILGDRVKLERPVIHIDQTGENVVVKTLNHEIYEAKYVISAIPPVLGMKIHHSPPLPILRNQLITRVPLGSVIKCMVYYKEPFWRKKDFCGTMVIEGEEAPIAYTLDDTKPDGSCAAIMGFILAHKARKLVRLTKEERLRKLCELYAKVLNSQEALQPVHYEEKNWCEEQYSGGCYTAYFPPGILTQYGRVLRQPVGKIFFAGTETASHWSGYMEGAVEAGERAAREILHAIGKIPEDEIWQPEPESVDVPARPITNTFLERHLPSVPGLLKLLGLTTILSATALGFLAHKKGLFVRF
# Procedure: (§1) ex vivo, on rats to which was administered orally a single dose of the compounds of formula (I) (or their pharmaceutically acceptable salts) or their corresponding racemic of formula (Io), in a 0.5% suspension in methylcellulose, the rats being sacrificed by being beheaded at varying times, the brains being removed, weighed, homogeneized and the determination of the MAOI activity being made by using serotonine and phenylethylamine, according to the procedure described by J. P. KAN and M. STROLIN-BENEDETTI in Life Sciences 26, 2165, (1980).
# [2] = target: T2, type A monoamine oxidase (MAO.A) (Rattus norvegicus, UniProt P21396); test: in vitro MAO.A inhibition on homogenized rat brain, serotonine (5-HT) substrate; type: biochemical, rats; conditions: Table 1, rat brain homogenate, read-out: MAO.A inhibition effect (5-HT) IC 50
# T2 construct: the brains being removed, weighed, homogeneized; from tissue; host or cells: brain of orally dosed rats, homogenized
# T2 sequence (P21396 1-526): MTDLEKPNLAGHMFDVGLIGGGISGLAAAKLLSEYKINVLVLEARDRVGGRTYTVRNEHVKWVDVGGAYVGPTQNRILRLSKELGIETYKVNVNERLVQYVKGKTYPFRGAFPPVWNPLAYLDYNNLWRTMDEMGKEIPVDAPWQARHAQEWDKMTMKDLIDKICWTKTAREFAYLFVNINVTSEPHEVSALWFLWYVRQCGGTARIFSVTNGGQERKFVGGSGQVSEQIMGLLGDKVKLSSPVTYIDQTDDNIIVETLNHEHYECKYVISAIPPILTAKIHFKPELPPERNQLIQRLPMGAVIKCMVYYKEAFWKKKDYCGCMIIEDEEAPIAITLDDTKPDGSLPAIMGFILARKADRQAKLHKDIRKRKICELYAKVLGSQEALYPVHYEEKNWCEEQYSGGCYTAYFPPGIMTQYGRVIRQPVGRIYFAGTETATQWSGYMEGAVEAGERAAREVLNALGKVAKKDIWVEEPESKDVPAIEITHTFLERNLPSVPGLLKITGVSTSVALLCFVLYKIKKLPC
# Text: (§2) in vitro, on the homogeneized brain of rats, by measuring the dose inhibiting by 50% (IC 50) the activity of monoamine oxidase (MAO) by taking phenylethylamine (PEA) as substrate of type B monoamine oxidase (MAO.B) and serotonine (5-HT) as substrate of type A monoamine oxidase (MAO.A), according to the procedure described by M. STROLIN BENEDETTI et al. in: Monoamine oxidase Basic and Clinical Frontiers, publishers K. KAMISO-E. USDIN-T. NAGATSO-Excepta Medica (1982)-page 209);
# [3] = target: T1, type B monoamine oxidase (MAO.B); test: in vitro MAO.B inhibition on homogenized rat brain, phenylethylamine (PEA) substrate; type: biochemical, rats; conditions: Table 1, rat brain homogenate, read-out: MAO.B inhibition effect (P.E.A.) IC 50
# Text: as §2
# [4] = target: T2, type A monoamine oxidase (MAO.A); test: ex vivo brain MAO.A inhibition after single oral dose in rats, 5-HT substrate; conditions: for inhibition at 10 mg/kg: Table 3, 10 mg/kg p.o.; for inhibition at 20 mg/kg: Table 3, 20 mg/kg p.o.
# Procedure: as §1
# [5] = oral acute toxicity in mice (Miller and Tainter's method); type: in vivo; conditions: mouse, in vivo, mice, oral, read-out: Acute toxicity (mice) LD 50
# Text: (§3) The results obtained in the in vitro test are shown in table 1 below and the results obtained in the ex vivo test, as well as the oral acute toxicity in mice evaluated according to MILLER and TAINTER's method [Proc. Soc.
# mice = test: as above; type: in vivo; conditions: in words
# Text: as §3
# [6] = Table 2, rats, 1 hour, read-out: % MAO inhibition effect after n hour(s), PEA (IMAO.B)
# [7] = Table 2, rats, 2 hours, read-out: % MAO inhibition effect after n hour(s), PEA (IMAO.B)
# [8] = Table 2, rats, 4 hours, read-out: % MAO inhibition effect after n hour(s), PEA (IMAO.B)
# [9] = Table 2, rats, 8 hours, read-out: % MAO inhibition effect after n hour(s), PEA (IMAO.B)
# [10] = Table 2, rats, 24 hours, read-out: % MAO inhibition effect after n hour(s), PEA (IMAO.B)
# [11] = Table 2, rats, 48 hours, read-out: % MAO inhibition effect after n hour(s), PEA (IMAO.B)
# [12] = Table 2, rats, 72 hours, read-out: % MAO inhibition effect after n hour(s), PEA (IMAO.B)
# [13] = Table 2, 5 mg/kg p.o., rats, 1 hour, read-out: % MAO inhibition effect after n hour(s), 5-HT (IMAO.A)
# [14] = Table 2, 5 mg/kg p.o., rats, 2 hours, read-out: % MAO inhibition effect after n hour(s), 5-HT (IMAO.A)
# [15] = Table 2, 5 mg/kg p.o., rats, 4 hours, read-out: % MAO inhibition effect after n hour(s), 5-HT (IMAO.A)
# [16] = Table 2, 5 mg/kg p.o., rats, 8 hours, read-out: % MAO inhibition effect after n hour(s), 5-HT (IMAO.A)
# [17] = Table 2, 5 mg/kg p.o., rats, 24 hours, read-out: % MAO inhibition effect after n hour(s), 5-HT (IMAO.A)
# [18] = Table 2, 5 mg/kg p.o., rats, 48 hours, read-out: % MAO inhibition effect after n hour(s), 5-HT (IMAO.A)
# [19] = Table 2, 5 mg/kg p.o., rats, 72 hours, read-out: % MAO inhibition effect after n hour(s), 5-HT (IMAO.A)
# [20] = Table 3, rats, 30, unit inferred, read-out: % MAO inhibition effect after n hour(s), PEA
# [21] = Table 3, rats, 1 hour, read-out: % MAO inhibition effect after n hour(s), PEA
# [22] = Table 3, rats, 2 hours, read-out: % MAO inhibition effect after n hour(s), PEA
# [23] = Table 3, rats, 4 hours, read-out: % MAO inhibition effect after n hour(s), PEA
# [24] = Table 3, rats, 8 hours, read-out: % MAO inhibition effect after n hour(s), PEA
# [25] = Table 3, rats, 24 hours, read-out: % MAO inhibition effect after n hour(s), PEA
# [26] = Table 3, 5 mg/kg p.o., rats, 30, unit inferred, read-out: % MAO inhibition effect after n hour(s), 5-HT
# [27] = Table 3, 5 mg/kg p.o., rats, 1 hour, read-out: % MAO inhibition effect after n hour(s), 5-HT
# [28] = Table 3, 5 mg/kg p.o., rats, 2 hours, read-out: % MAO inhibition effect after n hour(s), 5-HT
# [29] = Table 3, 5 mg/kg p.o., rats, 4 hours, read-out: % MAO inhibition effect after n hour(s), 5-HT
# [30] = Table 3, 5 mg/kg p.o., rats, 8 hours, read-out: % MAO inhibition effect after n hour(s), 5-HT
# [31] = Table 3, 5 mg/kg p.o., rats, 24 hours, read-out: % MAO inhibition effect after n hour(s), 5-HT
# [32] = rats, 2 hours, read-out: % MAO inhibition effect after n hour(s), 5-HT
# [33] = rats, 8 hours, read-out: % MAO inhibition effect after n hour(s), 5-HT
# [34] = rats, 24 hours, read-out: % MAO inhibition effect after n hour(s), 5-HT
compound,measurement,setting,value
"CNCC1CN(c2ccc(OCc3cccc(Cl)c3)cc2)C(=O)O1 (racemic) [Racemic of (Ib), reference compound]",inhibition at 5 mg/kg,[1]; [6],84%
same,inhibition at 5 mg/kg,[1]; [7],85%
same,inhibition at 5 mg/kg,[1]; [8],78%
same,inhibition at 5 mg/kg,[1]; [9],67%
same,inhibition at 5 mg/kg,[1]; [10],31%
same,inhibition at 5 mg/kg,[1]; [11],29%
same,inhibition at 5 mg/kg,[1]; [12],21%
same,IC50,[2],14000 nM
same,IC50,[3],34 nM
same,inhibition at 5 mg/kg,[4]; [13],7%
same,inhibition at 5 mg/kg,[4]; [14],8%
same,inhibition at 5 mg/kg,[4]; [15],10%
same,inhibition at 5 mg/kg,[4]; [16],8%
same,inhibition at 5 mg/kg,[4]; [17],1%
same,inhibition at 5 mg/kg,[4]; [18],1%
same,inhibition at 5 mg/kg,[4]; [19],1%
same,LD50,[5]; Table 2,> 1000 mg/kg
"O=C1O[C@H](CO)CN1c1ccc(OCc2cccc(Cl)c2)cc1 [(Ia), [S(+)] 5-hydroxymethyl 3-p-(meta-chlorobenzyloxy)phenyl oxazolidine-2-one]",specificity and reversibility,[1],much greater specificity
same,level of activity,[1],activity increases with the dose administered
same,inhibition at 5 mg/kg,[1]; [20],47%
same,inhibition at 5 mg/kg,[1]; [21],47%
same,inhibition at 5 mg/kg,[1]; [22],43%
same,inhibition at 5 mg/kg,[1]; [23],30%
same,inhibition at 5 mg/kg,[1]; [24],5%
same,inhibition at 5 mg/kg,[1]; [25],-5%
same,inhibition at 10 mg/kg,[1]; [22],66%
same,inhibition at 10 mg/kg,[1]; [24],36%
same,inhibition at 10 mg/kg,[1]; [25],6%
same,inhibition at 20 mg/kg,[1]; [22],77%
same,inhibition at 20 mg/kg,[1]; [24],50%
same,inhibition at 20 mg/kg,[1]; [25],5%
same,IC50,[2],9000 nM
same,IC50,[3],85 nM
same,inhibition at 5 mg/kg,[4]; [26],3%
same,inhibition at 5 mg/kg,[4]; [27],3%
same,inhibition at 5 mg/kg,[4]; [28],2%
same,inhibition at 5 mg/kg,[4]; [29],3%
same,inhibition at 5 mg/kg,[4]; [30],0%
same,inhibition at 5 mg/kg,[4]; [31],-2%
same,inhibition at 10 mg/kg,[4]; [32],5%
same,inhibition at 10 mg/kg,[4]; [33],1%
same,inhibition at 10 mg/kg,[4]; [34],0%
same,inhibition at 20 mg/kg,[4]; [32],7%
same,inhibition at 20 mg/kg,[4]; [33],3%
same,inhibition at 20 mg/kg,[4]; [34],0%
same,active doses relative to lethal 50 doses,mice,activities at doses much less than the lethal 50 doses
same,LD50,[5]; Table 3,> 1000 mg/kg
"CNC[C@@H]1CN(c2ccc(OCc3cccc(Cl)c3)cc2)C(=O)O1 [(Ib), [R(+)] 5-N-methylaminomethyl 3-p-(meta-chlorobenzyloxy)phenyl oxazolidine-2-one]",specificity and reversibility,[1],much greater specificity and reversibility
same,level of activity,[1],level of activity similar to that of its racemic
same,inhibition at 5 mg/kg,[1]; [6],74%
same,inhibition at 5 mg/kg,[1]; [7],77%
same,inhibition at 5 mg/kg,[1]; [8],71%
same,inhibition at 5 mg/kg,[1]; [9],61%
same,inhibition at 5 mg/kg,[1]; [10],6%
same,inhibition at 5 mg/kg,[1]; [11],5%
same,inhibition at 5 mg/kg,[1]; [12],0%
same,IC50,[2],50000 nM
same,IC50,[3],30 nM
same,inhibition at 5 mg/kg,[4]; [13],-1%
same,inhibition at 5 mg/kg,[4]; [14],0%
same,inhibition at 5 mg/kg,[4]; [15],0%
same,inhibition at 5 mg/kg,[4]; [16],1%
same,inhibition at 5 mg/kg,[4]; [17],-1%
same,inhibition at 5 mg/kg,[4]; [18],-3%
same,inhibition at 5 mg/kg,[4]; [19],3%
same,active doses relative to lethal 50 doses,mice,activities at doses much less than the lethal 50 doses
same,LD50,[5]; Table 2,> 1000 mg/kg
"O=C1OC(CO)CN1c1ccc(OCc2cccc(Cl)c2)cc1 (racemic) [Racemic of (Ia), reference compound]",inhibition at 5 mg/kg,[1]; [20],79%
same,inhibition at 5 mg/kg,[1]; [21],78%
same,inhibition at 5 mg/kg,[1]; [22],79%
same,inhibition at 5 mg/kg,[1]; [23],68%
same,inhibition at 5 mg/kg,[1]; [24],47%
same,inhibition at 5 mg/kg,[1]; [25],1%
same,IC50,[2],600 nM
same,IC50,[3],20 nM
same,inhibition at 5 mg/kg,[4]; [26],21%
same,inhibition at 5 mg/kg,[4]; [27],18%
same,inhibition at 5 mg/kg,[4]; [28],20%
same,inhibition at 5 mg/kg,[4]; [29],9%
same,inhibition at 5 mg/kg,[4]; [30],0%
same,inhibition at 5 mg/kg,[4]; [31],2%
same,LD50,[5]; Table 3,> 1000 mg/kg
